Patent publication US10544113B2 (priority 2016, dated 2020)
Where two headings read alike, the source gives them in different places.

Biological target: mu-opioid receptor (MOR) (Homo sapiens (Human), UniProt P35372)
Experiment: cell-based
Conditions: combined with a MOR antagonist; for AUC: AUC of [Ca2+]i fluorescence, CHO-K1/MOR/Gα15 cells

Chain of mu-opioid receptor (MOR) (P35372 whole entry): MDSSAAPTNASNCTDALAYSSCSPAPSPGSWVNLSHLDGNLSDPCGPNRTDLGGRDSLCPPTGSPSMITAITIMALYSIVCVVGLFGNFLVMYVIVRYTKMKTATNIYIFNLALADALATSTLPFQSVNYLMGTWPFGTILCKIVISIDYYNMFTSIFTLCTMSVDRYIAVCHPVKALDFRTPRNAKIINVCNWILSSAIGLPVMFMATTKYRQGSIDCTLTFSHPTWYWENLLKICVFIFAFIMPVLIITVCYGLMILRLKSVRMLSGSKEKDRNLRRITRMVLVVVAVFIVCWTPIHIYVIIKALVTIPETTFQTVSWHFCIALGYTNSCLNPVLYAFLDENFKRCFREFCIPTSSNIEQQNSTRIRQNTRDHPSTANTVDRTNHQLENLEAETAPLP

Row | SMILES | FLIPR Ca^2+ AUC | EC50 (read-out: FLIPR Ca^2+ EC50) | AUC | EC50 (EC50, CHO-K1/MOR/Gα15 cells)
1 | COCCN(C)C(=O)c1ccc(N2C(=O)CSC2c2ccc(F)cc2)c(C)c1 (centres unmarked) [Example 356] | 9505 | 11.8 µM | – | –
2 | COCCOCCOC(=O)c1ccc(S(=O)(=O)NC(=O)c2ccc(N3C(=O)CSC3c3ccc(F)cc3)c(C)c2)cc1 (centres unmarked) [Example 591, 2-(2-Methoxyethoxy)ethyl 4-({4-[2-(4-fluorophenyl)-4-oxo-1,3-thiazolidin-3-yl]-3-methylbenzoyl}sulfamoyl)benzoate] | 13033 | 10.3 µM | more than 5000 | –
3 | Cc1cc(C(=O)OCCOCCN2CCCC2)ccc1N1C(=O)CSC1c1ccc(F)cc1 (centres unmarked) [Example 307] | 14731 | 8.7 µM | more than 5000 | < 10 µM
4 | Cc1cc(C(=O)OCCCN2CCOCC2)ccc1N1C(=O)CSC1c1ccc(F)cc1 (centres unmarked) [Example 297] | 13753 | 8.1 µM | – | –
5 | CCOCCOC(=O)c1ccc(N2C(=O)CSC2c2ccc(F)cc2)c(C)c1 (centres unmarked) [Example 281] | 9792 | 4.5 µM | – | –
6 | Cc1cc(C(=O)OC2CCN(C)CC2)ccc1N1C(=O)CSC1c1ccc(F)cc1 (centres unmarked) [Example 301] | 9593 | 0.9 µM | – | –
7 | COCCCOC(=O)c1ccc(N2C(=O)CSC2c2ccc(F)cc2)c(C)c1 (centres unmarked) [Example 267] | 15960 | 6.4 µM | – | –
8 | Cc1cc(C(=O)NS(N)(=O)=O)ccc1N1C(=O)CSC1c1ccc(F)cc1 (centres unmarked) [Example 173] | 14841 | 5.3 µM | – | –
9 | Cc1cc(C(=O)OCCN(C)C)ccc1N1C(=O)CSC1c1ccc(F)cc1 (centres unmarked) [Example 290] | 14778 | 10 µM | – | –
10 | Cc1cc(C(=O)OCC2COC(C)(C)O2)ccc1N1C(=O)CSC1c1ccc(F)cc1 (centres unmarked) [Example 276] | 15090 | 6.3 µM | – | < 10 µM
11 | Cc1cc(C(=O)NCc2cc(F)cc(F)c2)ccc1N1C(=O)CSC1c1ccc(F)cc1 (centres unmarked) [Example 381] | 6035 | 8.2 µM | more than 5000 | < 10 µM
12 | CCN(CC)CCNC(=O)c1ccc(N2C(=O)CSC2c2ccc(F)cc2)c(C)c1 (centres unmarked) [Example 341] | 9983 | 3.3 µM | – | –
13 | CC(C)(C)c1cc(N2C(=O)CSC2c2ccc(F)cc2)no1 (centres unmarked) [Example 640, 3-(5-tert-Butyl-1,2-oxazol-3-yl)-2-(4-fluorophenyl)-1,3-thiazolidin-4-one] | 9872 | 14.2 µM | more than 5000 | –
14 | Cc1cc(C(=O)OCCOCCN(C)C)ccc1N1C(=O)CSC1c1ccc(F)cc1 (centres unmarked) [Example 306] | 7531 | 6.2 µM | more than 5000 | < 10 µM
15 | Cc1cc(C(=O)NCc2cc(F)ccc2F)ccc1N1C(=O)CSC1c1ccc(F)cc1 (centres unmarked) [Example 376] | 8823 | 1 µM | – | –
16 | CNC(=O)c1ccc(N2C(=O)CSC2c2ccc(F)cc2)c(C)c1 (centres unmarked) [Example 331] | – | – | – | < 10 µM
17 | Cc1cc(C(O)C(F)(F)F)ccc1N1C(=O)CSC1c1ccc(F)cc1 (centres unmarked) [Example 600, 2-(4-Fluorophenyl)-3-[2-methyl-4-(2,2,2-trifluoro-1-hydroxyethyl)phenyl]-1,3-thiazolidin-4-one] | 13110 | 6.75 µM | more than 5000 | < 10 µM
18 | Cc1cc(C)cc(CS(=O)(=O)NC(=O)c2ccc(N3C(=O)CSC3c3ccc(F)cc3)c(C)c2)c1 (centres unmarked) [Example 179] | 14442 | 1.1 µM | more than 5000 | < 10 µM
19 | Cc1cc(C(=O)NCc2ccccc2)ccc1N1C(=O)CSC1c1ccc(F)cc1 (centres unmarked) [Example 374] | 6726 | 5.1 µM | more than 5000 | –
20 | Cc1cc(C(=O)NCCc2ccc(Cl)cc2)ccc1N1C(=O)CSC1c1ccc(F)cc1 (centres unmarked) [Example 388] | 2951 | 2 µM | – | –
21 | CC(=O)N1CCC(CCOC(=O)c2ccc(N3C(=O)CSC3c3ccc(F)cc3)c(C)c2)CC1 (centres unmarked) [Example 299] | 10053 | 5 µM | – | –
22 | CCc1ccc(S(=O)(=O)NC(=O)c2ccc(N3C(=O)CSC3c3ccc(F)cc3)c(C)c2)cc1 (centres unmarked) [Example 186] | 18048 | 0.6 µM | – | –
23 | COC[C@@H]1CCCN1C(=O)c1ccc(N2C(=O)CSC2c2ccc(F)cc2)c(C)c1 (some centres unmarked) [Example 355] | 12691 | 10 µM | – | –

Row | SMILES | FLIPR Ca^2+ AUC | EC50 (read-out: FLIPR Ca^2+ EC50) | AUC | EC50 (EC50, CHO-K1/MOR/Gα15 cells)
24 | Cc1cc(C(=O)OC(C)CNC(=O)c2ccc[n+](C)c2)ccc1N1C(=O)CSC1c1ccc(F)cc1 (centres unmarked) [Example 328] | – | 11.8 µM | – | –
25 | Cc1cc(C(=O)NOCc2ccccc2)ccc1N1C(=O)CSC1c1ccc(F)cc1 (centres unmarked) [Example 217] | 9543 | 4.1 µM | – | –
26 | Cc1cc(C(=O)OC(C)CNC(=O)c2cccnc2)ccc1N1C(=O)CSC1c1ccc(F)cc1 (centres unmarked) [Example 326] | – | – | – | < 10 µM
27 | O=C(O)c1ccc(N2C(=O)CSC2c2ccc(F)cc2)c(Cl)c1 (centres unmarked) [Example 44] | – | – | – | < 10 µM
28 | CCOC(=O)N1CCC(NC(=O)c2ccc(N3C(=O)CSC3c3ccc(F)cc3)c(C)c2)CC1 (centres unmarked) [Example 350] | 12979 | 4.4 µM | – | –
29 | Cc1cc(C(=O)OCc2oc(=O)oc2C)ccc1N1C(=O)CSC1c1ccc(F)cc1 (centres unmarked) [Example 311] | – | – | – | < 10 µM
30 | N#Cc1cc(F)c(N2C(=O)CSC2c2ccc(F)cc2)c(F)c1 (centres unmarked) [Example 43] | 12926 | 11.2 µM | more than 5000 | –
31 | Cc1cc(C(=O)OCC2CCCO2)ccc1N1C(=O)CSC1c1ccc(F)cc1 (centres unmarked) [Example 275] | 11236 | 26.9 µM | – | –
32 | Cc1cc(C(=O)NCCCN2CCOCC2)ccc1N1C(=O)CSC1c1ccc(F)cc1 (centres unmarked) [Example 347] | 12967 | 8.2 µM | – | –
33 | COc1c(F)cc(F)cc1N1C(=O)CSC1c1ccc(F)cc1 (centres unmarked) [Example 11, 3-(3,5-Difluoro-2-methoxyphenyl)-2-(4-fluorophenyl)thiazolidin-4-one] | – | – | – | < 10 µM
34 | CCCOC(=O)c1ccc(N2C(=O)CSC2c2ccc(F)cc2)c(C)c1 (centres unmarked) [Example 229] | 13237 | 9.7 µM | – | –
35 | Cc1cc(C(=O)NS(=O)(=O)CC(C)C)ccc1N1C(=O)CSC1c1ccc(F)cc1 (centres unmarked) [Example 167] | 9905 | 3.4 µM | more than 5000 | < 10 µM
36 | CCCS(=O)(=O)NC(=O)c1ccc(N2C(=O)CSC2c2ccc(F)cc2)c(C)c1 (centres unmarked) [Example 160] | 13549 | 4.3 µM | more than 5000 | < 10 µM
37 | Cc1ccc(F)cc1N1C(=O)CSC1c1ccc(F)cc1 (centres unmarked) [Example 112] | – | – | – | < 10 µM
38 | Cc1cc(C(=O)NS(=O)(=O)C(F)(F)F)ccc1N1C(=O)CSC1c1ccc(F)cc1 (centres unmarked) [Example 175] | 13866 | 1.6 µM | – | –
39 | Cc1cc(-c2nnc(C(F)(F)F)o2)ccc1N1C(=O)CSC1c1ccc(F)cc1 (centres unmarked) [Example 228] | 7035 | 8.6 µM | – | –
40 | Cc1cc(C(=O)NS(=O)(=O)c2ccc(Br)cc2)ccc1N1C(=O)CSC1c1ccc(F)cc1 (centres unmarked) [Example 200] | 12340 | 0.2 µM | more than 5000 | < 10 µM
41 | Cc1cc(C(=O)O)ccc1N1C(=O)CSC1c1cccc(F)c1 (centres unmarked) [Example 60] | 20700 | 1.1 µM | – | –
42 | CCc1ccc(C2SCC(=O)N2c2cc(F)ccc2C)cc1 (centres unmarked) [Example 117] | 7880 | 13.5 µM | more than 5000 | –
43 | CCONC(=O)c1ccc(N2C(=O)CSC2c2ccc(F)cc2)c(C)c1 (centres unmarked) [Example 588, N-Ethoxy-4-[2-(4-fluorophenyl)-4-oxo-1,3-thiazolidin-3-yl]-3-methylbenzamide] | 9986 | 9.27 µM | more than 5000 | < 10 µM
44 | Cc1cc(C(=O)NCCc2ccc(F)cc2)ccc1N1C(=O)CSC1c1ccc(F)cc1 (centres unmarked) [Example 387] | 5770 | 4 µM | – | –
45 | COCCOCCS(=O)(=O)NC(=O)c1ccc(N2C(=O)CSC2c2ccc(F)cc2)c(C)c1 (centres unmarked) [Example 597, 4-[2-(4-Fluorophenyl)-4-oxo-1,3-thiazolidin-3-yl]-N-{[2-(2-methoxyethoxy)ethyl]sulfonyl}-3-methylbenzamide] | 10720 | 1.12 µM | more than 5000 | < 10 µM
46 | C=Cc1cc(C(=O)O)ccc1N1C(=O)CSC1c1ccc(F)cc1 (centres unmarked) [Example 157] | 5903 | 10 µM | more than 5000 | < 10 µM
